Test [1] deals with C. albicans CAF2-1 strain. Briefly: Anti-Candida activity, MIC measurement. In kind it is cell-based. Conditions: CAF21STRAIN, C. albicans CAF2-1, RPMI1640, 42-48 hours at 35° C., visual inspection, read-out: Anti-Candida Activity (minimum inhibitory concentration, MIC). The method in brief:
(§1)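 C. albicans CAF2-1 was grown 48 h at 30° C. in SDB and diluted in RPMI1640 to 1.2×10^3 cells/mL. Frozen A. fumigatus Tsukuba was diluted to 4.5×10^3 cells/mL. Compounds, two-fold serially diluted in DMSO from 2.5 mg/mL, were cultured aerobically with fungi for 42-48 h at 35° C.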

For test [2], the system named is A. fumigatus Tsukuba strain. Nature of the test: Anti-Aspergillus activity, MIC measurement. Format: cell-based. Conditions: RPMI1640, 42-48 hours at 35° C., visual inspection, read-out: Anti-Aspergillus Activity (minimum inhibitory concentration, MIC). Summed up:
as §1

Test [3] relates to C. albicans E81022 strain. Briefly: Experimental systemic candidal infection model in mice. Format: in vivo. Conditions: peroral, 3 times every 4 hours, female ICR mice, observed until 14 days after infection. On the procedure: A standing culture of C. albicans E81022 strain was carried out for 48 hours at 30° C. in sabouraud dextrose agar medium (SDA), the recovered fungal cells were suspended in sterilized physiological saline. By counting the fungal number on cytometry plate, the suspension was diluted to 2×10^7 cells/mL with sterilized physiological saline to serve fungal inoculum.
The fungal inoculum was used in the amounts of 0.2 mL to inoculate 4.5 to 5.5 week-old female ICR mice in the tail vein (4×10^6 cells/mouse).
From 0.5 to 1 hour after fungal inoculation, 0.2 mL of agent solution (dissolved or suspended in sterilized physiological saline containing 6.5% dimethyl sulfoxide and 3.5% Tween 80) was administered into the stomach using a peroral probe, 3 times every 4 hours. The agent concentration was 2.5 mg/kg or 10 mg/kg, and the number of animals in one group was 5 animals.
The protective effect was determined by observing life/death until 14 days after infection and calculating the mean survival days.

The values below come from US8158657B2, “Heterocycles substituted pyridine derivatives and antifungal agent containing thereof” (Eisai R&D Management Co., Ltd., priority 2005, dated 2012).

≈ marks a conversion by molar mass, not a printed value.

With `Nc1ncccc1-c1cc(Cc2ccc(OCc3ccc(F)cn3)cc2)no1` [Example 41, 3-(3-(4-(5-Fluoro-pyridin-2-ylmethoxy)-benzyl)-isoxazol-5-yl)-pyridin-2-ylamine], the MIC in test [1] was determined as 0.39 µg/mL (≈ 1.04 µM); in test [2], 0.2 µg/mL (≈ 0.531 µM). Also, the “Mean Survival Days” value in test [3] (2.5 mg/kg) worked out at 11.4 days; in test [3] (10 mg/kg), 11.8 days.

On to `COCc1ccc(-c2cc(Cc3ccc(COc4ccccn4)cc3)no2)c(N)n1` [Example 27], for which the values for the MIC in test [1] and in test [2] were 0.2 µg/mL (≈ 0.497 µM) and 0.39 µg/mL (≈ 0.969 µM), respectively. In addition, the “Mean Survival Days” value in test [3] (2.5 mg/kg) came out at 3.0 days; in test [3] (10 mg/kg), 10.0 days.

Regarding `Nc1ccc(-c2cc(Cc3ccc(Oc4ccc(F)cc4)nc3)no2)c(N)n1` [Example 135, 3-(3-(6-(4-Fluoro-phenoxy)-pyridin-3-ylmethyl)-isoxazol-5-yl)-pyridin-2,6-diamine], the MIC was determined as 0.78 µg/mL (≈ 2.07 µM) in test [1] and 0.39 µg/mL (≈ 1.03 µM) in test [2]. Moreover, the “Mean Survival Days” value in test [3] (2.5 mg/kg) is 11.0 days; in test [3] (10 mg/kg), 13.4 days.

On to `CCCCOCc1ccc(Cn2cc(-c3ccc(N)nc3N)cn2)cc1` [Example 38, 3-(1-(4-Butoxymethyl-benzyl)-1H-pyrazol-4-yl)-pyridin-2,6-diamine], for which the MIC in test [1] worked out at 0.78 µg/mL (≈ 2.22 µM); in test [2] it was 1.56 µg/mL (≈ 4.44 µM). The “Mean Survival Days” value in test [3] (2.5 mg/kg) stood at 4.8 days; in test [3] (10 mg/kg), 10.0 days.

`Nc1ncccc1-c1cc(Cc2ccc(CNc3ccccc3)cc2)no1` [Example 73, 3-(3-(4-Phenylaminomethyl-benzyl)-isoxazol-5-yl)-pyridin-2-ylamine]: the MIC was 0.1 µg/mL (≈ 0.281 µM) in test [1] and 0.39 µg/mL (≈ 1.09 µM) in test [2]. For the same compound, the “Mean Survival Days” value in test [3] (2.5 mg/kg) amounted to 4.4 days; in test [3] (10 mg/kg), 12.6 days.

As for `Nc1ncccc1-c1cc(Cc2ccc(OCc3ccccc3)cc2)on1` [Example 29, 3-(5-(4-Benzyloxy-benzyl)-isoxazol-3-yl)-pyridin-2-ylamine], the MIC was found to be 0.39 µg/mL (≈ 1.09 µM) in test [1] and 0.2 µg/mL (≈ 0.56 µM) in test [2]. The “Mean Survival Days” value in test [3] (10 mg/kg) stood at 11.4 days.

Consider `Nc1ncccc1-c1cc(Cc2ccc(COc3cccc(F)n3)cc2)no1` [Example 55, 3-(3-(4-(6-Fluoro-pyridin-2-yloxymethyl)-benzyl)-isoxazol-5-yl)-pyridin-2-ylamine], for which the MIC in test [1] was 0.05 µg/mL (≈ 0.133 µM); in test [2] it was 0.1 µg/mL (≈ 0.266 µM). Moreover, the “Mean Survival Days” value in test [3] (2.5 mg/kg) stood at 13.8 days; in test [3] (10 mg/kg), 14.0 days.

As for `Nc1ccc(-c2cc(Cc3ccn(Cc4ccccc4)c3)no2)c(N)n1` [Example 115, 3-(3-(1-Benzyl-1H-pyrrol-3-ylmethyl)-isoxazol-5-yl)-pyridin-2,6-diamine], the MIC in test [1] was 0.1 µg/mL (≈ 0.29 µM); in test [2] it was 0.2 µg/mL (≈ 0.579 µM). In addition, the “Mean Survival Days” value in test [3] (2.5 mg/kg) was determined as 10.8 days; in test [3] (10 mg/kg) it was 13.2 days.

As to `Nc1ccc(-c2cc(Cc3ccc(OCc4nccs4)cc3)no2)c(N)n1` [Example 151, 3-(3-(4-(Thiazol-2-ylmethoxy)-benzyl)-isoxazol-5-yl)-pyridin-2,6-diamine], the MIC came to 0.78 µg/mL (≈ 2.06 µM) in test [1] and 0.39 µg/mL (≈ 1.03 µM) in test [2]. In addition, the “Mean Survival Days” value in test [3] (2.5 mg/kg) is 7.0 days; in test [3] (10 mg/kg), 14.0 days.

In the case of `Nc1ccc(-c2cc(Cc3ccc(Oc4ccccc4)cc3)no2)c(N)n1` [Example 17, 3-(3-(4-Phenoxy-benzyl)-isoxazol-5-yl)-pyridin-2,6-diamine], the MIC in test [1] was found to be 0.78 µg/mL (≈ 2.18 µM); in test [2] it was 0.2 µg/mL (≈ 0.558 µM). Besides, the results for the “Mean Survival Days” value in test [3] (2.5 mg/kg) and in test [3] (10 mg/kg) were 8.2 days and 13.0 days, respectively.

Turning to `Nc1ccc(-c2cc(Cc3ccc(COc4ccccc4)nc3)no2)c(N)n1` [Example 111, 3-(3-(6-Phenoxymethyl-pyridin-3-ylmethyl)-isoxazol-5-yl)-pyridin-2,6-diamine], the MIC was found to be 0.39 µg/mL (≈ 1.04 µM) in test [1] and 0.78 µg/mL (≈ 2.09 µM) in test [2]. The “Mean Survival Days” value in test [3] (2.5 mg/kg) worked out at 13.6 days.

`Nc1ccc(-c2cc(Cc3ccc(CCC4CCCO4)cc3)no2)c(N)n1` (centres unmarked) [Example 143]: the MIC came out at 0.39 µg/mL (≈ 1.07 µM) in test [1] and 0.78 µg/mL (≈ 2.14 µM) in test [2].

Regarding `Cc1ccc(COc2ccc(Cc3cc(-c4cccnc4N)on3)cc2)nc1` [Example 42, 3-(3-(4-(5-Methyl-pyridin-2-ylmethoxy)-benzyl)-isoxazol-5-yl)-pyridin-2-ylamine], the MIC in test [1] amounted to 0.78 µg/mL (≈ 2.09 µM); in test [2], 1.56 µg/mL (≈ 4.19 µM).

With `Nc1ncccc1-c1cc(Cc2ccc(OCc3ccccc3F)cc2)no1` [Example 5, 3-(3-(4-(2-Fluoro-benzyloxy)-benzyl)-isoxazol-5-yl)-pyridin-2-ylamine], the MIC in test [1] and in test [2] was 0.39 µg/mL (≈ 1.04 µM) in each case.

For `Nc1ccc(-c2cc(Cc3ccc(OCc4ccccn4)cc3F)no2)c(N)n1` [Example 158, 3-(3-(2-Fluoro-4-(pyridin-2-ylmethoxy)-benzyl)-isoxazol-5-yl)-pyridin-2,6-diamine], the MIC in test [1] amounted to 1.56 µg/mL (≈ 3.99 µM); in test [2], 3.13 µg/mL (≈ 8 µM).

As to `Nc1ccc(-c2cc(Cc3ccc(CCc4ccccn4)cc3)no2)c(N)n1` [Example 159, 3-(3-(4-(2-Pyridin-2-yl-ethyl)-benzyl)-isoxazol-5-yl)-pyridin-2,6-diamine], the MIC worked out at 0.78 µg/mL (≈ 2.1 µM) in test [1] and 3.13 µg/mL (≈ 8.43 µM) in test [2].

Take `Nc1ncccc1-c1cc(Cc2ccc(OCc3ccc(F)cn3)c(F)c2)no1` [Example 94, 3-(3-(3-Fluoro-4-(5-fluoro-pyridin-2-ylmethoxy)-benzyl)-isoxazol-5-yl)pyridin-2-ylamine]: the MIC came to 0.78 µg/mL (≈ 1.98 µM) in test [1] and 0.39 µg/mL (≈ 0.989 µM) in test [2].

As for `Nc1ncccc1-c1cnn(Cc2ccc(Oc3ccccc3)nc2)c1` [Example 193, 3-(1-(6-Phenoxy-pyridin-3-ylmethyl)-1H-pyrazol-4-yl)-pyridin-2-ylamine], the MIC in test [1] and in test [2] was 0.78 µg/mL (≈ 2.27 µM) in each case.

`Nc1ccc(-c2cc(Cc3ccc(COc4ccccc4)cc3)no2)c(N)n1` [Example 148, 3-(3-(4-Phenoxymethyl-benzyl)-isoxazol-5-yl)-pyridin-2,6-diamine]: the MIC in test [1] and in test [2] was 0.2 µg/mL (≈ 0.537 µM) each time.

For `Nc1ncccc1-c1cc(Cc2ccc(OCc3ccccn3)cc2F)no1` [Example 95, 3-(3-(2-Fluoro-4-(pyridin-2-ylmethoxy)-benzyl)-isoxazol-5-yl)-pyridin-2-ylamine], the MIC in test [1] amounted to 0.39 µg/mL (≈ 1.04 µM); in test [2], 1.56 µg/mL (≈ 4.14 µM).

Regarding `Nc1ccc(-c2cc(Cc3ccc(OCc4cccnc4)cc3)no2)c(N)n1` [Example 108, 3-(3-(4-(Pyridin-3-ylmethoxy)-benzyl)-isoxazol-5-yl)-pyridin-2,6-diamine], the MIC amounted to 1.56 µg/mL (≈ 4.18 µM) in test [1] and 3.13 µg/mL (≈ 8.38 µM) in test [2].

`Nc1ncccc1-c1cnn(Cc2ccc(COCC3CC3)cc2)c1` [Example 195, 3-(1-(4-Cyclopropylmethoxymethyl-benzyl)-1H-pyrazol-4-yl)-pyridin-2-ylamine]: the MIC stood at 0.39 µg/mL (≈ 1.17 µM) in test [1] and 0.78 µg/mL (≈ 2.33 µM) in test [2].

In the case of `CCCCc1ccc(Cc2cc(-c3ccc(N)nc3N)on2)cc1` [Example 130, 3-(3-(4-Butyl-benzyl)-isoxazol-5-yl)-pyridin-2,6-diamine], the MIC in test [1] was 1.56 µg/mL (≈ 4.84 µM); in test [2], 0.2 µg/mL (≈ 0.62 µM).

As to `Nc1ncccc1-c1cc(Cc2ccc(Oc3ccc(F)cc3)s2)no1` [Example 91, 3-(3-(5-(4-Fluoro-phenoxy)-thiophen-2-ylmethyl)-isoxazol-5-yl)-pyridin-2-ylamine], the figures for the MIC in test [1] and in test [2] were 0.2 µg/mL (≈ 0.544 µM) and 0.1 µg/mL (≈ 0.272 µM), respectively.

For the compound `Nc1ncccc1-c1cnn(Cc2ccc(Oc3ccccc3)cc2)c1` [Example 34, 3-(1-(4-Phenoxy-benzyl)-1H-pyrazol-4-yl)-pyridin-2-ylamine], the figures for the MIC in test [1] and in test [2] were 0.78 µg/mL (≈ 2.28 µM) and 0.39 µg/mL (≈ 1.14 µM), respectively.

Regarding `COc1cccc(COc2ccc(Cc3cc(-c4cccnc4N)on3)cc2)n1` [Example 99, 3-(3-(4-(6-Methoxy-pyridin-2-ylmethoxy)-benzyl)-isoxazol-5-yl)-pyridin-2-ylamine], the MIC is 3.13 µg/mL (≈ 8.06 µM) in test [1] and 0.78 µg/mL (≈ 2.01 µM) in test [2].

Regarding `Nc1ncccc1-c1cc(Cc2ccc(OCc3ccc(F)cc3F)nc2)no1` [Example 90, 3-(3-(6-(2,4-Difluoro-benzyloxy)-pyridin-3-ylmethyl)-isoxazol-5-yl)-pyridin-2-ylamine], the MIC was found to be 1.56 µg/mL (≈ 3.96 µM) in test [1] and 0.39 µg/mL (≈ 0.989 µM) in test [2].

Regarding `Nc1ncccc1-c1cc(Cc2ccc(SCc3ccccc3)cc2)no1` [Example 205, 3-(3-(4-Benzylsulfanyl-benzyl)-isoxazol-5-yl)-pyridin-2-ylamine], the MIC was 0.39 µg/mL (≈ 1.04 µM) in test [1] and 0.78 µg/mL (≈ 2.09 µM) in test [2].

With `Nc1ccc(-c2cc(Cc3cccc(-c4ccccc4)c3)no2)c(N)n1` [Example 147, 3-(3-Biphenyl-3-ylmethyl-isoxazol-5-yl)-pyridin-2,6-diamine], the MIC in test [1] and in test [2] was 1.56 µg/mL (≈ 4.56 µM) in each case.

For `Nc1ncccc1-c1cc(Cc2ccc(OC3CCCC3)cc2)no1` [Example 78, 3-(3-(4-Cyclopentyloxy-benzyl)-isoxazol-5-yl)-pyridin-2-ylamine], the results for the MIC in test [1] and in test [2] were 0.78 µg/mL (≈ 2.33 µM) and 1.56 µg/mL (≈ 4.65 µM), respectively.
